# Target: human TRPV4 (Homo sapiens (Human), UniProt Q9HBA0)
# Experiment: Test Example 1: measurement of TRPV4 inhibitory activity (Fluo 4-AM, FLIPR TETRA, 4α-PDD 1 μmol/L)
# Assay type: cell-based
# Details: hTRPV4/CHO cells; for IC50: 4α-PDD 1 μmol/L; for Ki: calculated from IC50 and 4α-PDD EC50
# Protocol: For each compound, TRPV4 inhibitory activity was measured using cells.
# (1) The TRPV4 inhibitory activity was measured using CHO-K1 cells stably expressing human TRPV4 (hTRPV4/CHO cells).
# (2) In the day before the experimental day, frozen cell were thawed and washed with the culture medium (MEM-α, 10% FBS, 2 mmol/L GlutaMax, 50 unit Penicillin, 50 μg/mL Streptomycin). Then cells were suspended in the culture medium.
# (3) The 384-well plates which hTRPV4/CHO cells were seeded at densities of 4000 cells/well in the culture medium and cultured in a CO2 incubator in the presence of 5% CO2 at 37° C. for overnight was used as assay plates.
# (4) The assay plate was washed with assay buffer (Hanks, 20 mmol/L HEPES, 2.5 mmol/L probenecid, pH7.4), and the buffer were remained at 20 μL/well.
# (5) 10 μl of dye loading buffer (9 μmol/L Fluo 4-AM, 0.09% Pluronic F-127/assay buffer) was added to each well, then the assay plate was incubated in a CO2 incubator in the presence of 5% CO2 at 37° C. for one hour. (final 3 μmol/L Fluo4-AM).
# (6) The assay plate was washed with the assay buffer, and the buffers were remained at 20 μL/well. Then the assay plate was incubated for 10 min at room temperature.
# (7) Diluted compound solution was dispensed to each well in the compound plate, and mixed with built-in Pipette and Mixer of the Fluorescence analysis system FLIPR TETRA (Molecular devices).
# (8) After incubation for 5 min, 20 μL of 4α-PDD solution were applied to each well of assay plate and mixed with the FLIPR TETRA. (final 1 μmol/L 4α-PDD)
# (9) The fluorescent intensity was measured with FLIPR TETRA system for 10 min from the point of time addition the compound solution, at Ex 470-495 nm, Em 515-575 nm wavelength.
# TRPV4 inhibitory activity (IC50 value and Ki value) of a compound was evaluated according to the following procedure.
# (10) In the presence of the compound, the difference between maximal and minimal of fluorescent intensity value for 5 min from just before addition of 4α-PDD solution was calculated, and it was referred as Max-Min value. Max-Min value of the Ruthenium Red at 20 μM was defined as 100% inhibitory activity, Max-Min value in the absence of the compound was defined as 0% inhibitory activity. The TRPV4 inhibitory activity of the compound was calculated by the following formula. (1−(Max-Min value of the compound−100% inhibitory activity)/(0% inhibitory activity−100% inhibitory activity))×100 (11) Inhibitory activity was calculated at 10 points with three fold serial dilution, in the final concentration of the compound from 10 μmmol/L to 0.5 nmol/L, the IC50 value was calculated by logistic approximation method. (12) In the absence of the compound, the fluorescent intensity was measured as the same method with 10, 1, 0.5, 0.2, and 0 μmol/L as final concentration of 4α-PDD. The difference of minimal and maximal fluorescent intensity value for 5 min from just before addition of 4α-PDD solution was calculated, and it was referred as Max-Min value. Max-Min value of the 4α-PDD at 10 μmol/L was defined as 100% activity, Max-Min value in the absence of 4α-PDD was defined as 0% activity. The TRPV4 activity of each concentration of 4α-PDD was calculated by the following formula. (Max-Min value of the each 4α-PDD concentration−0% activity)/(100% activity−0% activity))×100 (13) Effective activity was calculated in 5 concentrations of 4α-PDD the above. The EC50 value was calculated by logistic approximation method. The Ki value of a compound was calculated by the following formula. Ki (nmol/L)=IC50 value (nmol/L)/(1+[…] (test 4α-PDD concentration (nmol/L)/EC50 value (nmol/L))
# Chain of human TRPV4 (Q9HBA0 whole entry): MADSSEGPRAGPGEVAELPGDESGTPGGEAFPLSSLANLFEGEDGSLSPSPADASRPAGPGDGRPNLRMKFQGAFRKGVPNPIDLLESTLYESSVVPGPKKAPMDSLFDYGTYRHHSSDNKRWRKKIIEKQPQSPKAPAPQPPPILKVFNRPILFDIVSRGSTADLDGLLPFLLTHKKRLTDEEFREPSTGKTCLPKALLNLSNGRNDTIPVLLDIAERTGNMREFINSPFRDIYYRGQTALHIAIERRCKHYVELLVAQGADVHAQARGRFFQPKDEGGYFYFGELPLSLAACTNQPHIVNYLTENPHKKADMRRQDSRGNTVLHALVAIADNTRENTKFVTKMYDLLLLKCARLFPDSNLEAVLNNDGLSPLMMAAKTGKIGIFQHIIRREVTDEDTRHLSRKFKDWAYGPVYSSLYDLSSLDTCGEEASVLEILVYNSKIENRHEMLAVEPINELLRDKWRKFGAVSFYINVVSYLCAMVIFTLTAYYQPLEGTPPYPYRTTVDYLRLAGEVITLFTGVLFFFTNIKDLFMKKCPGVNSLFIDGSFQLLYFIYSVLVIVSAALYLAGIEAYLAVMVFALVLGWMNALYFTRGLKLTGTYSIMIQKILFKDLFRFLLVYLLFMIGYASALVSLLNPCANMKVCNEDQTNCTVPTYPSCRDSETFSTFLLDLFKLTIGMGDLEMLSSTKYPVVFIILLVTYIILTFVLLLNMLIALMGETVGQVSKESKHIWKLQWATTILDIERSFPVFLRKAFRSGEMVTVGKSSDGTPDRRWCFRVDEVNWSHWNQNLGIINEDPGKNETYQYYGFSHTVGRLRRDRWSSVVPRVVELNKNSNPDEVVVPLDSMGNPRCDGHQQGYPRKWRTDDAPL
SMILES,IC50,Ki
Cc1c(C(=O)Nc2cccc(C(F)(F)F)c2)cc(C2CCCCC2)n1CCCN1CCOCC1 [Compound I-072],0.045 µM,0.021 µM
Cc1c(C(=O)Nc2cccc(C(F)(F)F)c2)cc(C2CCN(C(=O)OCc3ccccc3)CC2)n1CCCN1CCOCC1 [Compound I-075],0.27 µM,0.13 µM
CCOC(=O)CCn1c(C(C)(C)C)cc(C(=O)Nc2cccc(C(F)(F)F)c2)c1C [Compound I-090],1.1 µM,0.38 µM
Cc1c(C(=O)Nc2cccc(C(F)(F)F)c2)cc(C(C)(C)C)n1CCC(=O)N1CCOCC1 [Compound I-091],1.5 µM,0.56 µM
CNC(=O)CCn1c(C(C)(C)C)cc(C(=O)Nc2cccc(C(F)(F)F)c2)c1C [Compound I-092],6.4 µM,2.4 µM
Cc1c(C(=O)Nc2cccc(C(F)(F)F)c2)cc(C(C)(C)C)n1CCC(=O)N1CCNCC1 [Compound I-093],1.4 µM,0.53 µM
CNS(=O)(=O)CCn1c(C(C)(C)C)cc(C(=O)Nc2cccc(C(F)(F)F)c2)c1C [Compound I-094],6.1 µM,2.2 µM
Cc1c(C(=O)Nc2cccc(C(F)(F)F)c2)cc(C(C)(C)C)n1CCS(=O)(=O)N1CCOCC1 [Compound I-095],0.97 µM,0.38 µM
CNC(C)CCn1c(C(C)(C)C)cc(C(=O)Nc2cccc(C(F)(F)F)c2)c1C (centres unmarked) [Compound I-096],0.42 µM,0.13 µM
Cc1c(C(=O)Nc2cccc(C(F)(F)F)c2)cc(C(C)(C)C)n1CCC(C)N1CCOCC1 (centres unmarked) [Compound I-097],0.43 µM,0.13 µM
Cc1c(C(=O)Nc2cccc(C(F)(F)F)c2)cc(C(C)(C)C)n1CCS(=O)(=O)N1CCNCC1 [Compound I-098],1.9 µM,0.59 µM
Cc1c(C(=O)Nc2cccc(C(F)(F)F)c2)cc(C(C)(C)C)n1C1CCNCC1 [Compound I-099],5.9 µM,2.1 µM
CNCC(C)(C)Cn1c(C(C)(C)C)cc(C(=O)Nc2cccc(C(F)(F)F)c2)c1C [Compound I-100],0.83 µM,0.29 µM
CC(=O)N1CCC(n2c(C(C)(C)C)cc(C(=O)Nc3cccc(C(F)(F)F)c3)c2C)CC1 [Compound I-101],7.4 µM,2.6 µM
Cc1c(C(=O)Nc2cccc(C(F)(F)F)c2)cc(C(C)(C)C)n1C1CCN(S(C)(=O)=O)CC1 [Compound I-102],4.2 µM,1.5 µM
Cc1c(S(=O)(=O)NCc2cccc(C(F)(F)F)c2)cc(C(C)(C)C)n1CCCN1CCOCC1 [Compound I-104],7.7 µM,2.7 µM
Cc1c(C(=O)Nc2cccc(C(F)(F)F)c2)cc(C(C)(C)C)n1C1CCN(C)CC1 [Compound I-106],3.9 µM,1.2 µM
COC(=O)CN1CCC(n2c(C(C)(C)C)cc(C(=O)Nc3cccc(C(F)(F)F)c3)c2C)CC1 [Compound I-107],6.6 µM,2.1 µM
Cc1c(C(=O)Nc2cccc(C(F)(F)F)c2)cc(C(C)(C)C)n1CC(C)(C)CN1CCOCC1 [Compound I-108],0.54 µM,0.17 µM
Cc1c(C(=O)Nc2cccc(C(F)(F)F)c2)cc(C(C)(C)C)n1C1CCN(C2CCNCC2)CC1 [Compound I-109],6.3 µM,2.3 µM
Cc1c(C(=O)Nc2cccc(C(F)(F)F)c2)cc(C(C)(C)C)n1C1CCN(CCO)CC1 [Compound I-110],6.6 µM,2.4 µM
Cc1c(C(=O)Nc2cccc(C(F)(F)F)c2)cc(C(C)(C)C)n1[C@H]1CC[C@H](N)CC1 [Compound I-111],4.1 µM,1.5 µM
CN[C@H]1CC[C@H](n2c(C(C)(C)C)cc(C(=O)Nc3cccc(C(F)(F)F)c3)c2C)CC1 [Compound I-112],5.6 µM,1.5 µM
Cc1c(C(=O)Nc2cccc(C(F)(F)F)c2)cc(C(C)(C)C)n1[C@H]1CC[C@H](N(C)C)CC1 [Compound I-113],5.8 µM,1.5 µM
Cc1c(C(=O)Nc2cccc(C(F)(F)F)c2)cc(C(C)(C)C)n1[C@H]1CC[C@H](NS(C)(=O)=O)CC1 [Compound I-114],8.7 µM,2.3 µM
